Test results published in PMC8558867, “Development of BromoTag: A “Bump-and-Hole”–PROTAC System to Induce Potent, Rapid, and Selective Degradation of Tagged Target Proteins” (Journal of Medicinal Chemistry, 2021).
Values joined by “and” are separate entries in the source; they are usually repeats but may differ in a detail not shown here. Equal entries are not always repeated. Where two headings read alike, the source gives them in different places.

Experiments:
[1] = test system: BromoTag-Brd2; assay: Recovery (washout) assay; format: cell-based, human
Experimental: This was performed in the genotype-verified heterozygous BromoTag-Brd2 HEK293 cell line. Heterozygous BromoTag-Brd2 HEK293 cells were plated at a density of 5 × 10^5 cells per well of a six-well plate a day before initiating the recovery assay. […] During treatment, the cells were kept at 37 °C, 5% CO2, and 95% humidity.
All cells were harvested on ice with RIPA lysis and extraction buffer (Thermo Fisher Scientific, 89901) supplemented with protease inhibitor cocktail (Merck, 11697498001) and Benzonase Nuclease (Sigma, E1014) before being stored at −20 °C prior to use. Total protein quantity was determined using the BCA protein assay (#23225, Pierce, Rockford, Illinois). The protein concentration was determined using the BCA assay (Thermo Fisher Scientific, 23225). The samples were then prepared and loaded onto NuPAGE 4–12% bis–tris Midi gels (Thermo Fisher Scientific, WG1403A), followed by the transfer of proteins onto nitrocellulose membranes (EMD Millipore). The membranes were blocked for 1 h prior to incubation with the primary antibodies using 5% Milk TBST. […] All western blots were analyzed for band intensities using Image Lab from Bio-Rad (LI-COR, Biosciences). The data extracted from these blots were then plotted and analyzed using Prism (v. 8.2.0, GraphPad).

[2] = In vivo PK profiling; conditions: male, C57BL/6, mouse, plasma, mice
Experimental: PK profiling was outsourced and undertaken by Shanghai ChemPartner Co., Ltd. All animal experiments performed were conducted in compliance with the Institutional Animal Care and Use Committee (IACUC) and the Office of Laboratory Animal Welfare (OLAW) guidelines. Six- to eight-week-old C57BL/6 male mice purchased from Jihui Laboratory Animal Co. LTD were used in the study. […] The animals were restrained manually at the designated time points (0.083, 0.25, 0.5, 1, 2, 4, and 8 h); approximately, 110 μL of blood sample was collected via facial vein into K2EDTA tubes. Three mice per time point were used, resulting in a […]. The blood sample was put on ice and centrifuged at 2000g for 5 min to obtain the plasma sample within 15 min. The plasma samples were stored at approximately −70 °C until analysis. A 30 μL aliquot of plasma was added with 200 μL of internal standard (diclofenac, 40 ng/mL) in 1% formic acid in MeCN. The mixture was then vortexed for 1 min and then centrifuged for 10 min at 5800 rpm. The supernatant (100 μL) was transferred to a new plate. The solvent (0.5 μL) was injected to LC–MS/MS. LC–MS/MS instrument used: SCIEX LC–MS/MS-45 (Triple Quad 6500+). Data was analyzed by WinNonLin and Microsoft Excel.

[3] = test system: MV-4-11 cells; assay: CellTiter-Glo 2.0 cell viability assay, MV-4-11; format: cell-based, human; conditions: MV-4-11, up to 1–10 μM
[4] = target: T1, VHL with Brd4^BD2 L387A (Homo sapiens, UniProt O60885+P40337, L387A); assay: FP competitive binding assay, ternary complex binding (compound preincubated with Brd4^BD2 L387A)
T1 construct: N-terminally His6-tagged VHL (54–213); His6 (N, cleaved yes); made in house; host or cells: E. coli

[5] = Plasma stability; format: in vitro ADME; conditions: mouse plasma, 37 °C, over 1 h
Experimental: Plasma stability studies were outsourced and undertaken by Shanghai ChemPartner Co., Ltd. Buffer preparation: a solution of 0.05 M sodium phosphate and 0.07 M NaCl buffer at pH 7.4 was made by dissolving 14.505 g/L of Na2HPO4·12H2O, 1.483 g/L of NaH2PO4·2H2O, and 4.095 g/L of NaCl in deionized water, and the pH was adjusted with phosphoric acid. Plasma preparation: frozen mouse plasma was thawed by placing at 37 °C quickly. The thawed plasma was centrifuged at 3000 rpm for 8 min to remove clots, and the supernatant was pooled to be used as the plasma in the experiment. The plasma (pH 7.4–8.0) was stored on ice until used. […] Plasma and spiking solutions were prewarmed at 37 °C for 5 min, and then 10 μL of prewarmed spiking solution B was added into the wells designated for all the time points (5, 15, 30, 45, and 60 min). For 0 min, 400 μL of acetonitrile-containing internal standards (imipramine, glipizide) was added to the wells of a 0 min plate, and then 90 μL of plasma was added. For the time points (0, 5, 15, 30, 45, and 60 min), 90 μL of prewarmed plasma was added at the initial stage. At 5, 15, 30, 45, and 60 min, 400 μL of acetonitrile containing the internal standard (imipramine, glipizide) was added to the wells of the corresponding plates to stop the reaction. […] Data was analyzed with Microsoft Excel.

[6] = target: T2, VHL (VCB protein) (Homo sapiens, UniProt P40337); assay: FP competitive binding assay, binary binding; conditions: compound alone; mean ±S.E.M., N = 4; read-out: binary affinity to VHL Kd
T2 construct: N-terminally His6-tagged VHL (54–213); His6 (N, cleaved yes); made in house; host or cells: E. coli

[7] = test system: BromoTag-Brd2; assay: Dose–response degradation assay (western blot, 6 h) in heterozygous BromoTag-Brd2 HEK293 cells; format: cell-based, human; conditions: 6 h; for DC50: read-out: DC50 of BromoTag-Brd2 degradation (DC50, 6h), single stereoisomers
[8] = eight-point 10 μM to 1 nM, mean ±S.E. of two repeats

CC[C@@H](C(=O)OCCOCCOCCOCC(=O)N[C@H](C(=O)N1C[C@H](O)C[C@H]1C(=O)NCc1ccc(-c2scnc2C)cc1)C(C)(C)C)[C@@H]1N=C(c2ccc(Cl)cc2)c2c(sc(C)c2C)-n2c(C)nnc21 [AGB1 (46), (S)-13-((2S,4R)-4-Hydroxy-2-((4-(4-methylthiazol-5-yl)benzyl)carbamoyl)pyrrolidine-1-carbonyl)-14,14-dimethyl-11-oxo-3,6,9-trioxa-12-azapentadecyl (R)-2-((S)-4-(4-chlorophenyl)-2,3,9-trimethyl-6H-thieno[3,2-f][1,2,4]triazolo[4,3-a][1,4]diazepin-6-yl)butanoate]
time after washout at which BromoTag-Brd2 protein levels recover ([1]; 200 nM for 3 h, then washout): 24 h
on-target degradation without washout ([1]; 200 nM, no washout): complete and durable on-target degradation for up to 72 h
AUC(0-t) at 8 h ([2]; IV (5 mg/kg)): 1.71 µM·h
MRT inf ([2]; IV (5 mg/kg)): 23.4 min
clearance at 8 h ([2]; IV (5 mg/kg)): 47.2 mL/min/kg
half-life at 8 h ([2]; IV (5 mg/kg)): 89.4 min
AUC(0-inf) at 8 h ([2]; IV (5 mg/kg), read-out: AUCinf): 1.72 µM·h
Vd at 8 h ([2]; IV (5 mg/kg), read-out: Vss): 1.1 L/kg
AUC(0-t) at 8 h ([2]; SC (5 mg/kg)): 2.33 µM·h
Cmax at 8 h ([2]; SC (5 mg/kg)): 700 nM
Tmax at 8 h ([2]; SC (5 mg/kg)): 30 min
half-life at 8 h ([2]; SC (5 mg/kg)): 99 min
AUC(0-inf) at 8 h ([2]; SC (5 mg/kg), read-out: AUCinf (μ; M·h)): 2.4 µM·h
cytotoxicity [3]: lack of cytotoxicity
α (FP binding) ([4]; cooperativity, Kd binary/Kd ternary, supplementary CSV): 11.1
Kd ([4]; preincubated with Brd4^BD2 L387A, mean ±S.E.M., N = 4, read-out: ternary binding affinity Kd): 11 nM
cooperativity (α) ([4]; α = Kd binary/Kd ternary): 11.1
plasma stability: levels remaining [5]: no significant changes
Kd [6]: 125 nM
pDC50 (Ab: Brd^4BD2 L387A) [7, 8]: 7.8 ± 0.2
pDC50 (Ab: BromoTag-Brd2) [7, 8]: 7.9 ± 0.1
DC50 [7]: 12.6 to 14.5 nM
DC50 ([7]; listed as 46): 13 to 15 nM and ~13 nM
